For experiment [1], the system named is Brown rust (Puccinia recondita). The experiment in a line: Test Example 4: foliar spray on wheat, Brown rust lesion area. It counts as in vivo, Puccinia recondita on wheat (cultivar. Shirogane). As to conditions: single use, foliar spray one day before inoculation, lesion area after ten days. The procedure: Five (5) parts of the present compound 1, 35 parts of a mixture of white carbon and ammonium polyoxyethylene alkyl ether sulfate (the weight ratio of 1:1) and […] of water were mixed, and the mixture was then finely-ground by a wet grinding method to obtain a flowable comprising the present compound 1. Separately, the flowable comprising the present compound 2 was prepared according to the above-mentioned similar method except that the present compound 2 was used instead of the present compound 1.
Each of the flowable comprising the present compound 1 and the flowable comprising the present compound 2 was diluted with water and if necessary, the resultant dilute solutions were mixed each other such that each concentration of the respective compounds in the dilution solution was adjusted to the concentration indicated in Table 3, to prepare the dilution solutions, respectively.
A plastic pot was filled with soil, and thereto wheat (cultivar. Shirogane) was seeded, and the plants were grown in a greenhouse for ten days. The above-mentioned dilution solutions were sprayed to foliar parts so as to adhere adequately onto the surfaces of leaves of the above wheats. After spraying the dilute solution, the plants were air-dried, and one day after the application, an aqueous suspension of uredospores of Brown rust (Puccinia recondita) was inoculated by spraying thereto. After the inoculation, the plants were placed at 27° C. under humid condition for one day, and were then cultivated under lighting for ten days, and a lesion area was examined (hereinafter referred to as “lesion area of treated group”).
Whereas, wheats were cultivated similarly to the treated group except that no foliage application of the above-mentioned agent solution was done, and Brown rust were inoculated, and the lesion area thereof was examined (hereinafter referred to as “lesion area of the untreated group”).
From each of the lesion area of the treated group and the untreated group, respectively, the efficacy of the treated group was calculated by the following Equation 2. […]

Experiment [2] relates to Septoria leaf blotch (Mycosphaerella graminicola). Briefly: Test Example 3: growth of Septoria leaf blotch in YBG medium, microtiter plate, absorbance at 550 nm. It counts as cell-based. To be noted: single use, concentration in medium 0.005 ppm; 18° C., four days. As to the method: Each of the present compound 1 or the present compound 2 was dissolved into dimethyl sulfoxide such that each concentration of these compounds was adjusted to one hundred fifty times as much as the concentration indicated in the below-mentioned Table 2. The resultant agent solution was dispensed into each microtiter plate (with 96 wells) in 1 μl portion thereof per well. […] The plate was cultivated at 18° C. for four days, thereby allowing Septoria leaf blotch (Mycosphaerella graminicola) to undergo proliferation, and the absorbance at 550 nm of each well of the microtiter plate was then measured to examine a degree of growth of Septoria leaf blotch (hereinafter referred to as “treated group”).
Whereas, Septoria leaf blotch was proliferated similarly to the case of the treated group except that dimethyl sulfoxide was used instead of the agent solution, and the degree of the growth was examined (hereinafter referred to as “untreated group”). The efficacy was calculated from each of the obtained degree of growth of the treated group and the untreated group respectively by the following “Equation 1”. […]

Turning to `CC1CC(C)(C)c2c(F)ccc(NC(=O)c3cn(C)nc3C(F)F)c21` (stereo not shown) [Present compound 2], the “Efficacy (%)” value in experiment [1] (concentration in agent solution 0.001 ppm) came to 15%.

`CNC(=O)C(OC)c1ccccc1COc1cc(C)ccc1C` (stereo not shown) [Present compound 1]: the figures for the “Efficacy (%)” value in experiment [2], in experiment [1] (concentration in agent solution 0.0001 ppm) and in experiment [1] (concentration in agent solution 0.01 ppm) were 20%, 22% and 46%, respectively.

The record behind these values is patent US20190059375A1, “SYNERGISTIC FUNGICIDAL COMPOSITION FOR CONTROLLING PLANT DISEASES” (Sumitomo Chemical Company, Limited, priority 2016, published 2019).
